Target: human DNA topoisomerase II (Homo sapiens, UniProt P11388)
Assay: DNA topoisomerase II in vitro cleavage assay
Assay type: biochemical
Conditions: singly 5' end-labeled MLL intron 8 and MIFL intron 8 substrates; 147 nM enzyme, 1 mM ATP, 20 μM drug, 10 min 37° C.
Procedure: FIGS. 8A-8D provide images of autoradiographs depicting MLL bcr positions 5382-5570 (FIGS. 8A and 8B) or positions 1387 to 1424 in MIFL intron 8 (FIGS. 8C and 8D) identified utilizing topoisomerase II in vitro cleavage assays. Autoradiographs show cleavage products after 10 minute incubation at 37° C. of 25 ng (30,000 cpm) singly 5' end-labeled DNA with 147 nM human DNA topoisomerase II, 1 mM ATP and, where indicated, 20 μM etoposide, etoposide catechol, etoposide quinone or doxorubicin (FIGS. 8A and 8C), or lower doxorubicin concentrations (FIGS. 8B and 8D). Specified reactions were incubated for an additional 10 minutes at 75° C. before trapping the covalent complexes (FIGS. 8A and 8C). The 5' side (-1 position) of the cleavage sites are shown by the dashes at far right. Fragments of the MLL bcr spanning positions 5382-5570 in intron 8 or fragments of MIFL spanning positions 1309-1479 in intron 8 were subcloned into BamHI-NotI sites of TOPO pCR2.1 (Invitrogen). Twenty micrograms of plasmid DNA first was treated with 400 units T4 DNA ligase (New England Biolabs; Beverly, Mass.) for 1 hour to ensure that the substrates were not nicked. […] Calf intestinal phosphatase was inactivated in 5 mM EDTA (pH 8.0) and the DNA was PCI-extracted and ethanol precipitated. The DNA was then 5' end-labeled with [γ-^32P]ATP (Amersham; Arlington Heights, Ill.) and T4 polynucleotide kinase (New England Biolabs) as described (Felix et al. (1995) Cancer Res., 55:4287-92). Alternatively, to prepare cold substrate DNA, 20 μg of BamHI/NotI-digested, dephosphorylated plasmid were phosphorylated with 10 μM ATP (Boehringer Mannheim; Indianapolis, Ind.) in otherwise similar reactions. […] DNA recovery was quantitated by optical density measurement and scintillation counting. […] Cleavage products were visualized by autoradiography and quantitated using a PhosphorImager and ImageQuant software (Molecular Dynamics; Sunnyvale, Calif.).

human DNA topoisomerase II, sequence (P11388 whole entry): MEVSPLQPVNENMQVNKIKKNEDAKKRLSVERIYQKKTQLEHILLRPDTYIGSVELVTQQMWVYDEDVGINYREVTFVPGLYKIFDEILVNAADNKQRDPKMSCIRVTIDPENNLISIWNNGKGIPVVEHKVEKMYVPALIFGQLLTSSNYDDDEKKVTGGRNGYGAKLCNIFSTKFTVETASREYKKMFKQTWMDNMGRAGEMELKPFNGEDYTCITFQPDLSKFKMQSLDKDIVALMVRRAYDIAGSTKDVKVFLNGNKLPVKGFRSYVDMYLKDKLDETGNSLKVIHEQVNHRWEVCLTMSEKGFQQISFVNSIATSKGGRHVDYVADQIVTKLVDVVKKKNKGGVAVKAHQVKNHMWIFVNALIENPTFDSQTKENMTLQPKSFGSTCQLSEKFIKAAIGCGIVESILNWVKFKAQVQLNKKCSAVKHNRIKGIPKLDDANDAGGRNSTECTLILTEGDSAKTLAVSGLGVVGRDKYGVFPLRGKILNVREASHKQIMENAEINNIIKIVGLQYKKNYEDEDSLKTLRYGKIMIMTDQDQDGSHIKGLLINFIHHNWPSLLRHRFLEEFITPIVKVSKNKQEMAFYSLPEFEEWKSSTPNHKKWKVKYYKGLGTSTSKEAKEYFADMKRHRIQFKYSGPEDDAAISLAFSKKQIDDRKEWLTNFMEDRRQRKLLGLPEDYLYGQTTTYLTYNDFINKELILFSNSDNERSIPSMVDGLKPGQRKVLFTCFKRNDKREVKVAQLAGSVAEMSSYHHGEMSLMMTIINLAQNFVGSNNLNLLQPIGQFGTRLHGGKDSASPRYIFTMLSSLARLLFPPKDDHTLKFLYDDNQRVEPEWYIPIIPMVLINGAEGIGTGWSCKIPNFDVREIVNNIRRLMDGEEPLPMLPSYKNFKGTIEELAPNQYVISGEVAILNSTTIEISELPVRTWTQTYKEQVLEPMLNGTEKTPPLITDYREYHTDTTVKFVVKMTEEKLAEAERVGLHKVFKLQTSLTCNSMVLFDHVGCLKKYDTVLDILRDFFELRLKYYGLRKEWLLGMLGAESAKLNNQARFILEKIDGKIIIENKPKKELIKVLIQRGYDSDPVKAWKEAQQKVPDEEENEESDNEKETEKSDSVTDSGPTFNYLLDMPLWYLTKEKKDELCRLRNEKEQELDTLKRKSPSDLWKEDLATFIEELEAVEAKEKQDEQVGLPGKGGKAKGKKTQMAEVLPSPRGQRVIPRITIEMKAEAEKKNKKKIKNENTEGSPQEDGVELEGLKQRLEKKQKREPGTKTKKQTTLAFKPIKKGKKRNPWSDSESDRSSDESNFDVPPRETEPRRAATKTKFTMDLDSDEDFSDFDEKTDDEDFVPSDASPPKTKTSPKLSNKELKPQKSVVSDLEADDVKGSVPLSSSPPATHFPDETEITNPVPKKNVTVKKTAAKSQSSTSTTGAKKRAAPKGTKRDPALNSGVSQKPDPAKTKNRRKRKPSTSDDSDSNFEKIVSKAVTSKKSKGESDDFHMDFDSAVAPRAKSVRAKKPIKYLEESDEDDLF

Compound | formation of DNA topoisomerase II cleavage complexes at or near the translocation breakpoints
COc1cccc2c1C(=O)c1c(O)c3c(c(O)c1C2=O)C[C@@](O)(C(=O)CO)C[C@@H]3O[C@H]1C[C@H](N)[C@H](O)[C@H](C)O1 [dox, doxorubicin] | marginal activity
COC1=CC(C2c3cc4c(cc3C(O[C@@H]3O[C@@H]5COC(C)O[C@H]5[C@H](O)[C@H]3O)C3COC(=O)C23)OCO4)=CC(=O)C1=O (stereo partly drawn) [etoposide quinone] | increased the formation of DNA topoisomerase II cleavage complexes
COc1cc([C@@H]2c3cc4c(cc3[C@@H](O[C@@H]3O[C@@H]5CO[C@@H](C)O[C@H]5[C@H](O)[C@H]3O)[C@H]3COC(=O)[C@H]23)OCO4)cc(OC)c1O [etoposide] | increased the formation of DNA topoisomerase II cleavage complexes
